The results in this text go back to PMC2889921 (The Journal of organic chemistry, 2009).

This assay has as its target T1, PKCζ (protein kinase C ζ) (Homo sapiens, UniProt Q05513).
T1 sequence (Q05513 1-592): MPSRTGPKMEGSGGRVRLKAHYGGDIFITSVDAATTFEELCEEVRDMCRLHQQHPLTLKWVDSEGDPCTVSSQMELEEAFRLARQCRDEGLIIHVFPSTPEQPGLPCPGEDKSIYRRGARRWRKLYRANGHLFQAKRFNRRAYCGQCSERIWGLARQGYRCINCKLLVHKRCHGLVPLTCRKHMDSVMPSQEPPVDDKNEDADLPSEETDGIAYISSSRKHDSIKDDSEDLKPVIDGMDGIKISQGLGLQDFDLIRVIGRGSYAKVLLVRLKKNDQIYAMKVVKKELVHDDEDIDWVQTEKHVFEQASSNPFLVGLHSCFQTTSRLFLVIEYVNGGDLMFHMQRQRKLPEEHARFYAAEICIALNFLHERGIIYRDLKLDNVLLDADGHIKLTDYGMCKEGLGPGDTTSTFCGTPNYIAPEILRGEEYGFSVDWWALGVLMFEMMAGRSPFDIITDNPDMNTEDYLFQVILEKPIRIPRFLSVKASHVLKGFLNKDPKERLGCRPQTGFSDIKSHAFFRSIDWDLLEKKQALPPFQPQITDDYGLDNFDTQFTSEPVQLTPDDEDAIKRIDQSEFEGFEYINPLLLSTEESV
As to the kind of experiment: homogeneous TR-FRET kinase activity assay. Format: biochemical. A general note: In TR-FRET formats the signal depends on donor and acceptor labels being close together.

In general, IC50 refers to the concentration that gives 50% inhibition. Read a high IC50 as weaker potency in that assay. In turn, fibrosterol sulfate A [compound 1] displayed an IC50 of 16.4 µM.

With fibrosterol sulfate B [compound 2], the midpoint of inhibition, the IC50, lay at 5.6 µM.
